Values of other authors as cited in US7737327B2, “Methods for screening for genes and small molecules that activate mammalian receptor proteins” (The University of Kentucky Research Foundation, priority 2004, dated 2010).

Legend:
[1] = mice on a high-cholesterol diet
[2] = tested on: mouse mammary tumor virus promoter; conditions: only when low level of inducer (200 nm dexamethasone) present simultaneously

Molecule	effect on hepatic cholesterol [1]	effect on activity of mouse mammary tumor virus promoter [2]
C/C=C1\C(=O)C[C@H]2[C@@H]3CCC4=CC(=O)CC[C@]4(C)[C@H]3CC[C@]12C [guggelsterone]	decrease hepatic cholesterol	–
(−)-epigallocatechin-3-O-gallate	–	enhance the activity
